Measured values reported in publication PMC8070189, “Native Structure-Based Peptides as Potential Protein–Protein Interaction Inhibitors of SARS-CoV-2 Spike Protein and Human ACE2 Receptor” (Molecules, 2021).

Target: RBD domain of SARS-CoV-2 protein (Severe acute respiratory syndrome coronavirus 2, UniProt P0DTC2)
Assay type: binding

MYEEFKAED
binding affinity to RBD of S protein, in words: extremely weak binder
